Measured values reported in publication PMC4113810, “Hainanerectamines A–C, Alkaloids from the Hainan Sponge Hyrtios erecta” (Marine Drugs, 2014).

target: T1, Aurora A (Homo sapiens, UniProt O14965); assay: Z-LYTE kinase assay (peptide/kinase mixture with ATP, fluorescence); type: biochemical
T1 construct: gene AURKA
T1 sequence (O14965 1-403): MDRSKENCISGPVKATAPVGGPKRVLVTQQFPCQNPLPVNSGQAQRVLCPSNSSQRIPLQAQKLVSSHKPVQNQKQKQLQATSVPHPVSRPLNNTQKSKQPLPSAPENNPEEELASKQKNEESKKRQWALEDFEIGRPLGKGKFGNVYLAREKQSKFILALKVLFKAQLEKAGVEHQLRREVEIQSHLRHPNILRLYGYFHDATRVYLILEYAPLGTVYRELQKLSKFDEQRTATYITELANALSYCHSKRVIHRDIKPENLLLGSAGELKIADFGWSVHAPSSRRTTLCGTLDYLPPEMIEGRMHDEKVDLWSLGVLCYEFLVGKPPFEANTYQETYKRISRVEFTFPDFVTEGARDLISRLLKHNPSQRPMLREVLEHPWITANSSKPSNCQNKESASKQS

IC50 [µM] | Compound
122 | C/C=C(/C=O)c1c[nH]c2ccc(O)cc12 [compound 2, hainanerectamine B]
43.5 | O=C(O)[C@@H]1Cc2c([nH]c3ccc(O)cc23)[C@H](Cc2c[nH]cn2)N1 [compound 3, (−)-(1R^*, 3R^*)-6-hydroxy-1-(4-methylene-1H-imidazole)-2,3,4,9-tetrahydro-1H-β-carboline-3-carboxylic acid]
49.9 | CSc1ncn(C)c1C[C@@H]1N[C@H](C(=O)O)Cc2c1[nH]c1ccc(O)cc21 [compound 4, hainanerectamine C]
